Laboratory results from patent US20210330672A1, “USE OF BCL6 INHIBITORS FOR TREATING AUTOIMMUNE DISEASES” (TEQLA THERAPEUTICS INC., priority 2018, published 2021).

Legend:
KLH-specific IgG = assay: KLH-specific serum IgG (ELISA) after in vivo treatment of KLH-immunized mice; design: species or system C57BL/6 mice; settings: for Serum IgG Level, Day 14, Group Mean: KLH-immunized mice, KLH + Vehicle group 223879
Method: (§1) Experimental animals: Female C57BL/6 mice were purchased from Envigo (Livermore, Calif.) to provide 8- to 10-week-old animals at the time of immunization. IgG measurements were performed using Innovative Research KLH IgG ELISA kit. Germinal center staining was performed on Dako autostainer using procedures well known in the art.
(§2) On Day 0, animals of Groups 2-6 (n=10 each) were immunized by intraperitoneal (IP) injection with 0.2 mL (0.5 mg) per mouse of KLH, a dose determined to be optimal for IP administration without adjuvant. Mice from Group 1 (n=5) were sham-immunized by IP injection of 0.2 mL PBS per mouse.
(§3) Starting on Day 0 (immediately post-immunization) and continuing through Day 13 (i.e., 14 days total), animals in Group 1, 2, and 4-6 were injected IP once daily (QD) with vehicle, 30 mg/kg Compound 1, 10 mg/kg Compound 1, or 100 mg/kg Compound 2; animals in Group 3 were injected IP once weekly (QW) with 50 mg/kg CP. All doses were administered by IP injection at 5 mL/kg at approximately the same time (±1 h) each day.
(§4) On Day 14 (at approximately 24 hours after the final dose administration), all animals were subjected to terminal cardiocentesis and euthanized. Following clotting and processing, the resulting serum samples were flash-frozen and stored at −80° C. pending analysis by enzyme-linked immunosorbent assay (ELISA). The spleen was harvested from each mouse and split into two. One half of each spleen was collected for immunohistochemical (IHC) analysis of germinal center activity using peanut agglutinin (PNA) staining. Single-cell suspensions were collected from the other spleen halves and stored in DMSO cell-freezing medium. These samples were to be used for optional FACS analysis. Remaining tissues were discarded without further evaluation.
(§5) Statistical analysis: Descriptive and inferential analyses were performed using the corresponding functions of Excel 2010 (Microsoft, Redmond, Wash.). Inferential analysis consisted of t-test comparisons (two-tailed, non-paired, heteroscedasticity assumed) between groups as indicated. Values of p<0.05 were considered statistically significant.
Results:KLH-specific IgG Levels. ELISA (performed as experimental replicates) was used to determine the levels of immunoglobulin G (IgG) specific for KLH in the terminal serum samples.

[1] = test system: germinal centers of the spleen; assay: IHC with PNA staining of spleen as a measure of germinal center activity in KLH-immunized mice; type: in vivo, C57BL/6 mice; settings: spleen Day 14; for Staining Intensity, Group Mean: PNA IHC, KLH + Vehicle group 2.4; for % PNA-Positive Staining of Germinal Center, Group Mean: KLH + Vehicle group 42%
Method: as §1, §2, §3, §4, §5
Immunohistochemical (IHC) Staining with Peanut Agglutinin (PNA) as a Measure of Germinal Center Activity. IHC with PNA staining was used to determine the levels of positive staining in the germinal centers of the spleen.

O=P1(N(CCCl)CCCl)NCCCO1 (stereo not drawn) [CP, cyclophosphamide, reference compound]
attenuation of immune response to KLH (serum IgG and PNA staining of splenic germinal centers) (KLH-specific IgG; 50 mg/kg, IP, once weekly over 14 days): nominal but non-significant attenuation | Serum IgG Level, Day 14, Group Mean (KLH-specific IgG; 50 mpk IP once weekly over 14 days): 161482 U/mL | Staining Intensity, Group Mean ([1]; 50 mpk IP once weekly): 1.3 | % PNA-Positive Staining of Germinal Center, Group Mean ([1]; 50 mpk IP once weekly): 29%

CNC(=O)COc1cc2cc(Nc3nc(N4CCC(C(=O)N(C)C)CC4)ncc3Cl)cc(OC)c2n(C)c1=O [Compound 2, 1-(5-chloro-4-((8-methoxy-1-methyl-3-(2-(methylamino)-2-oxoethoxy)-2-oxo-1,2-dihydroquinolin-6-yl)amino)pyrimidin-2-yl)-N,N-dimethylpiperidine-4-carboxamide]
attenuation of immune response to KLH (reduced IgG levels and germinal center activity) (KLH-specific IgG; 100 mg/kg, IP, once daily over 14 days): highly significant attenuation | attenuation of immune response to KLH (KLH-specific IgG; 10 or 30 mg/kg, IP, once daily over 14 days, no observable dose response): less significant attenuation | Serum IgG Level, Day 14, Group Mean (KLH-specific IgG; 100 mpk IP once daily Days 0-13): 41503 U/mL | Staining Intensity, Group Mean ([1]; 100 mpk IP once daily): 1.1 | % PNA-Positive Staining of Germinal Center, Group Mean ([1]; 100 mpk IP once daily): 7%

CNC(=O)COc1cc2cc(Nc3nc(N4C[C@H](C)C[C@H](C)C4)ncc3Cl)ccc2n(C)c1=O [Compound 1, 2-((6-((5-chloro-2-((3R,5S)-3,5-dimethylpiperidin-1-yl)pyrimidin-4-yl)amino)-1-methyl-2-oxo-1,2-dihydroquinolin-3-yl)oxy)-N-methylacetamide]
Serum IgG Level, Day 14, Group Mean (KLH-specific IgG; 10 mpk IP once daily Days 0-13): 100997 U/mL | Serum IgG Level, Day 14, Group Mean (KLH-specific IgG; 30 mpk IP once daily Days 0-13): 103098 U/mL | Staining Intensity, Group Mean ([1]; 10 mpk IP once daily): 1.2 | Staining Intensity, Group Mean ([1]; 30 mpk IP once daily): 1.5 | % PNA-Positive Staining of Germinal Center, Group Mean ([1]; 10 mpk IP once daily): 12% | % PNA-Positive Staining of Germinal Center, Group Mean ([1]; 30 mpk IP once daily): 12%
